Test results as given in patent US20230357233A1, “HETEROARYL COMPOUNDS, PREPARATION METHODS AND USES THEREOF” (INVENTISBIO CO., LTD., priority 2020, published 2023).

What was measured:
[1] = target: recombinant human KRAS^G12D protein (Homo sapiens, UniProt P01116, G12D); experiment: Temperature-dependent Fluorescence (TdF) KRAS^G12D protein binding assay; details: 6 μM KRAS^G12D Protein, 10 μM compound, Sypro Orange; Kd calculated from fluorescent shift
Description: The TdF assay was conducted in the 96-well-based real-time fluorescence plate reader (ABI 7500 or Roche LightCycler 480). Fluorescent dye Sypro Orange (Sigma) was used to monitor the protein folding-unfolding transition. Protein-compound binding was gauged by the shift in the unfolding transition temperature (ΔTm) acquired with and without compound. […] The sample plate was heated from 30° C. to 95° C. with a thermal ramping rate of […], taking a fluorescence reading every 0.4° C. using a CY3 channel matching the excitation and emission wavelengths of Sypro Orange (λ ex 470 nm; λ em 570 nm). Binding affinity (Kd value) was calculated based on the degree of fluorescent shift of the protein with and without compound.

Ba/F3_KRAS^G12D cells = Ba/F3_KRAS^G12D cells (Homo sapiens, UniProt P01116, G12D, cells depend on it); experiment: Ba/F3 KRAS^G12D cell proliferation assay (cell-titer Glo); format: cell-based; details: cell growth inhibition, treated with the compounds for 3 days, read-out: BaF3_KRAS^G12D IC50
Sequence of Ba/F3_KRAS^G12D cells (P01116 whole entry G12D): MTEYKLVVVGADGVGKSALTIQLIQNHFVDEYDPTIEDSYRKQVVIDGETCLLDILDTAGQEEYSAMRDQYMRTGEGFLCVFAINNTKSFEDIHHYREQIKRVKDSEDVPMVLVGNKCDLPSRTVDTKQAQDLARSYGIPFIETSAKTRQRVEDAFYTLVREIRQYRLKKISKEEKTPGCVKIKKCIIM

Sequence of recombinant human KRAS^G12D protein (P01116 1-188 isoform P01116-2 G12D): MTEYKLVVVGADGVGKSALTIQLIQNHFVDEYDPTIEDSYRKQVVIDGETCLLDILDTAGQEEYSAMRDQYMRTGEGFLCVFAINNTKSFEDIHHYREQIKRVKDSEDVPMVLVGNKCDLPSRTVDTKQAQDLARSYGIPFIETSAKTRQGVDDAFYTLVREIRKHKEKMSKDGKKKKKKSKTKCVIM

Compound	Kd [1]	GI50 (Ba/F3_KRAS^G12D cells)
CCc1cccc2cc(O)cc(-c3nc(C)c4c(N5CC6CCC(C5)N6)nc(OC[C@@]56CCCN5C[C@H](F)C6)nc4c3F)c12 [Compound 85]	≤ 500 nM	< 500 nM
COc1cc(-c2cc3nc(OC[C@@H]4CCCN4C)nc(N4CC5CCC(C4)N5)c3nc2OC)c2ccccc2c1 [Compound 86]	> 5000 nM	500 to 5000 nM
Cc1nc(-c2ccc(F)c3sc(N)nc23)c(F)c2nc(OC[C@@]34CCCN3C[C@H](F)C4)nc(N3CC4CCC(C3)N4)c12 [Compound 87]	500 to 5000 nM	> 5000 nM
CCc1cccc2cc(O)cc(-c3cc4c(cn3)c(N3CC5CCC(C3)N5)nc(=O)n4C[C@@H]3CCCN3C)c12 [Compound 88]	> 5000 nM	> 5000 nM
Cc1nc(-c2cc(O)cc3cccc(Cl)c23)c(F)c2nc(OC[C@@]34CCCN3C[C@H](F)C4)nc(N3CC4CCC(C3)N4)c12 [Compound 89]	≤ 500 nM	< 500 nM
Cc1nc(-c2cc(O)cc3cccc(Cl)c23)c(F)c2nc(OC[C@@]34CCCN3C[C@H](F)C4)nc(N3CC4CCC(C3)N4C)c12 [Compound 90]	500 to 5000 nM	500 to 5000 nM
COc1nc2c(N3CC4CCC(C3)N4)nc(OC[C@@H]3CCCN3C)nc2cc1-c1cc(O)cc2ccccc12 [Compound 91]	500 to 5000 nM	500 to 5000 nM
CN1CCC[C@H]1COc1nc(N2CC3CCC(C2)N3)c2[nH]c(=O)c(-c3cc(O)cc4ccccc34)cc2n1 [Compound 92]	500 to 5000 nM	> 5000 nM
Cc1cccc2cc(O)cc(-c3nc(C)c4c(N5CC6CCC(C5)N6)nc(OC[C@@]56CCCN5C[C@H](F)C6)nc4c3F)c12 [Compound 93]	≤ 500 nM	< 500 nM
Oc1cc(-c2cc3nc(OC[C@@]45CCCN4C[C@H](F)C5)nc(N4CC5CCC(C4)N5)c3nn2)c2c(Cl)cccc2c1 [Compound 94]	≤ 500 nM	500 to 5000 nM
Oc1cc(-c2nc(Cl)c3c(N4CC5CCC(C4)N5)nc(OC[C@@]45CCCN4C[C@H](F)C5)nc3c2F)c2ccccc2c1 [Compound 95]	≤ 500 nM	< 500 nM
CC1(O)CN2CCC[C@@]2(COc2nc(N3CC4CCC(C3)N4)c3cnc(-c4cc(O)cc5cccc(Cl)c45)c(F)c3n2)C1 (stereo partly shown) [Compound 96]	≤ 500 nM	> 5000 nM
Oc1cc(-c2ncc3c(N4CC5(CCCN5)C4)nc(OC[C@@]45CCCN4C[C@H](F)C5)nc3c2F)c2c(Cl)cccc2c1 [Compound 97]	> 5000 nM	> 5000 nM
N#Cc1c(-c2cccc3cccc(Cl)c23)nc(OCC23CCCN2CCC3)c2ccc(N3CCNCC3)nc12 [Compound 98]	> 5000 nM	500 to 5000 nM
Cc1nc(-c2ccc(F)c3nc(N)sc23)c(F)c2nc(OC[C@@]34CCCN3C[C@H](F)C4)nc(N3CC4CCC(C3)N4)c12 [Compound 99]	> 5000 nM	500 to 5000 nM
Oc1cc(-c2ncc3c(C4CC5CCC(C4)N5)nc(OC[C@@]45CCCN4C[C@H](F)C5)nc3c2F)c2c(Cl)cccc2c1 (stereo partly shown) [Compound 100]	> 5000 nM	> 5000 nM
Oc1cc(-c2nc(OC[C@@]34CCCN3C[C@H](F)C4)c3ccc(N4CC5CCC(C4)N5)nc3c2Br)c2c(Cl)cccc2c1 [Compound 101]	> 5000 nM	500 to 5000 nM
Cc1cc(N)nc(-c2nc(C)c3c(N4CC5CCC(C4)N5)nc(OC[C@@]45CCCN4C[C@H](F)C5)nc3c2F)c1C1CC1 [Compound 102]	> 5000 nM	> 5000 nM
C#Cc1cccc2cc(O)cc(-c3nc(C)c4c(N5CC6CCC(C5)N6)nc(OC[C@@]56CCCN5C[C@H](F)C6)nc4c3F)c12 [Compound 103]	≤ 500 nM	< 500 nM
Oc1cc(-c2cc3nc(N4CC5CCC(C4)N5)ccc3c(OC[C@@]34CCCN3C[C@H](F)C4)n2)c2ccccc2c1 [Compound 104]	> 5000 nM	> 5000 nM
Cc1cc(N)nc(-c2nc(C)c3c(N4CC5CCC(C4)N5)nc(OC[C@@]45CCCN4C[C@H](F)C5)nc3c2F)c1C(F)(F)F [Compound 105]	500 to 5000 nM	> 5000 nM
Cc1nc(-c2cc(O)cc3cccc(C(F)(F)F)c23)c(F)c2nc(OC[C@@]34CCCN3C[C@H](F)C4)nc(N3CC4CCC(C3)N4)c12 [Compound 106]	≤ 500 nM	< 500 nM

Compound	Kd [1]	GI50 (Ba/F3_KRAS^G12D cells)
Cc1cc2c(N3CC4CCC(C3)N4)nc(OCC34CCCN3CCC4)nc2c(=O)n1-c1cccc2ccccc12 [Compound 107]	> 5000 nM	500 to 5000 nM
O=c1c2nc(OCC34CCCN3CCC4)nc(N3CC4CCC(C3)N4)c2ccn1-c1cccc2ccccc12 [Compound 108]	> 5000 nM	> 5000 nM
O=c1cc2c(N3CC4CCC(C3)N4)nc(OCC34CCCN3CCC4)nc2cn1-c1cc(O)cc2ccccc12 [Compound 109]	> 5000 nM	> 5000 nM
O=c1cc2c(N3CC4CCC(C3)N4)nc(OCC34CCCN3CCC4)nc2cn1-c1cccc2ccccc12 [Compound 110]	> 5000 nM	500 to 5000 nM
O=c1cc2c(N3CC4CCC(C3)N4)nc(OCC34CCCN3CCC4)nc2cn1-c1cc(O)cc2cccc(Cl)c12 [Compound 111]	> 5000 nM	> 5000 nM
Oc1cc(-c2ncc3c(N4CC5CCC(C4)N5)nc(OC[C@@]45CCCN4C[C@H](F)C5)nc3c2F)c2c(Cl)cccc2c1 [Compound 112]	≤ 500 nM	< 500 nM
CCc1cccc2cc(O)cc(-c3nc(Cl)c4c(N5CC6CCC(C5)N6)nc(OC[C@@]56CCCN5C[C@H](F)C6)nc4c3F)c12 [Compound 113]	≤ 500 nM	< 500 nM
Oc1cc(-c2nc(Cl)c3c(N4CC5CCC(C4)N5)nc(OC[C@@]45CCCN4C[C@H](F)C5)nc3c2F)c2c(Cl)cccc2c1 [Compound 114]	≤ 500 nM	< 500 nM
Cc1nc(-c2cc(O)cc3cccc(C#N)c23)c(F)c2nc(OC[C@@]34CCCN3C[C@H](F)C4)nc(N3CC4CCC(C3)N4)c12 [Compound 115]	≤ 500 nM	> 5000 nM
Cc1nc(-c2cc(C(F)F)cc3cccc(Cl)c23)c(F)c2nc(OC[C@@]34CCCN3C[C@H](F)C4)nc(N3CC4CCC(C3)N4)c12 [Compound 116]	> 5000 nM	500 to 5000 nM
CCc1cccc2cc(O)cc(-c3nc(C)c4c(N5CC6CCC(C5)N6)nc(OC[C@@]56CCCN5C[C@H](F)C6)nc4c3C)c12 [Compound 117]	≤ 500 nM	< 500 nM
CCc1cccc2cc(O)cc(-c3nc(CC)c4c(N5CC6CCC(C5)N6)nc(OC[C@@]56CCCN5C[C@H](F)C6)nc4c3F)c12 [Compound 118]	≤ 500 nM	< 500 nM
Cc1nc(-c2cc(O)cc3cccc(CCC#N)c23)c(F)c2nc(OC[C@@]34CCCN3C[C@H](F)C4)nc(N3CC4CCC(C3)N4)c12 [Compound 119]	500 to 5000 nM	> 5000 nM
Oc1cc(-c2nc(Cl)c3c(N4CC5CCC(C4)N5)nc(OC[C@@]45CCCN4C[C@H](F)C5)nc3c2Cl)c2c(Cl)cccc2c1 [Compound 120]	≤ 500 nM	< 500 nM
CCc1cccc2cc(O)cc(-c3cc4nc(OC[C@@]56CCCN5C[C@H](F)C6)nc(N5CC6CCC(C5)N6)c4c(C)n3)c12 [Compound 121]	≤ 500 nM	500 to 5000 nM
CCc1cccc2cc(O)cc(-c3nc(C)c4c(N5CC6CCC(C5)N6)nc(OC[C@@]56CCCN5C[C@H](F)C6)nc4c3C3CC3)c12 [Compound 122]	> 5000 nM	500 to 5000 nM
Cc1nc(-c2cccc3cccc(CCC#N)c23)c(F)c2nc(OC[C@@]34CCCN3C[C@H](F)C4)nc(N3CC4CCC(C3)N4)c12 [Compound 123]	> 5000 nM	500 to 5000 nM
CCc1cccc2c(F)c(O)cc(-c3nc(C)c4c(N5CC6CCC(C5)N6)nc(OC[C@@]56CCCN5C[C@H](F)C6)nc4c3F)c12 [Compound 124]	≤ 500 nM	< 500 nM
CCc1cccc2cc(O)cc(-c3nc(OC)c4c(N5CC6CCC(C5)N6)nc(OC[C@@]56CCCN5C[C@H](F)C6)nc4c3F)c12 [Compound 125]	≤ 500 nM	< 500 nM
Cc1nc(-c2cc(O)cc3ccc(F)c(Cl)c23)c(F)c2nc(OC[C@@]34CCCN3C[C@H](F)C4)nc(N3CC4CCC(C3)N4)c12 [Compound 126]	≤ 500 nM	< 500 nM
C#Cc1c(F)ccc2cc(O)cc(-c3nc(C)c4c(N5CC6CCC(C5)N6)nc(OC[C@@]56CCCN5C[C@H](F)C6)nc4c3F)c12 [Compound 128]	≤ 500 nM	< 500 nM
Cc1nc(-c2cc(O)cc3cccc(Cl)c23)c(Cl)c2nc(OC[C@@]34CCCN3C[C@H](F)C4)nc(N3CC4CCC(C3)N4)c12 [Compound 130]	≤ 500 nM	< 500 nM
